The source made the active and inactive calls. How the calls were made is not given here.
Target: C-X-C chemokine receptor type 6 (Homo sapiens) (UniProt O00574)
Test: potency against CXCR6 with APJ panel – cell-based, beta-arrestin, DiscoveRx, uHTS hits, dose response (AID 624129)
Conditions: CXCR6 beta-arrestin (DiscoveRx) antagonist cell assay; for outcome: CXCR6, dose range 1; for inhibition: CXCR6, run 2, dose range 1, at 79 µM (top of the series)
[1] = CXCR6, dose range 1, mean IC50 across replicates

C-X-C chemokine receptor type 6 (Homo sapiens), sequence (O00574 whole entry, looked up): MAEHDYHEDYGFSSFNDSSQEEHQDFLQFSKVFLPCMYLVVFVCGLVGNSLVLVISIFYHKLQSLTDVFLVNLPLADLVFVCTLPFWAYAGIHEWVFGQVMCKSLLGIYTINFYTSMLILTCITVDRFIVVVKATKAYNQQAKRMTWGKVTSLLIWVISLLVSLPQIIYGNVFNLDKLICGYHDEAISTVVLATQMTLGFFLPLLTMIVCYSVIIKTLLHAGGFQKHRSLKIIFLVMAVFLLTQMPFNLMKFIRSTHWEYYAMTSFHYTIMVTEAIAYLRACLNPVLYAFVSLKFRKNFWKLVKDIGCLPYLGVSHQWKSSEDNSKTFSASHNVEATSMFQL

| Compound | outcome | IC50 [1] [µM] | IC50 (CXCR6, run 1, dose range 2) [µM] | inhibition [%] | IC50 (CXCR6, run 2, dose range 2) [µM] |
| --- | --- | --- | --- | --- | --- |
| C[n+]1ccc(/C=N/Nc2nc(Cl)c(C#N)c(Cl)c2Cl)cc1 | inactive | 44.8 | 23.6 | 90.5 | 66 |
| CN(C)/C=C/c1oc2ccc(O)cc2c1[N+](=O)[O-] | inactive | 17.5 | 18.5 | 93.1 | 16.4 |
| CN(C)CCCN(C(=O)CCS(=O)(=O)c1ccccc1)c1nc2cc3c(cc2s1)OCO3 | inactive | 14.9 | 14.3 | 110 | 15.5 |
| CCOc1ccc(Nc2ccc([N+](=O)[O-])c3nonc23)cc1 | inactive | 38.8 | 33.7 | 81.7 | 43.9 |
| CCOc1cc(/C=C2\N=C(SC)SC2=O)cc([N+](=O)[O-])c1OC(C)=O | inactive | 28.3 | 27.7 | 98.2 | 28.8 |
| COc1cc(/C=C/[N+](=O)[O-])ccc1OC(=O)c1cccnc1 | inactive | 25.5 | 19.1 | 108 | 31.9 |
| O=C(C(=Cc1ccc(F)cc1)C(=O)c1ccccc1)c1ccccc1 | inactive | 13.7 | 11.8 | 112 | 15.5 |
| CCC1=NN(C(=O)c2ccc([N+](=O)[O-])cc2)C(O)(c2ccccc2)C1 (stereo not given) | inactive | 44.8 | 25.2 | 91.7 | 64.4 |
| CCN(CC)CCn1c(N)c(S(=O)(=O)c2ccccc2)c2nc3ccccc3nc21 | inactive | 15.9 | 13.2 | 99.2 | 18.5 |
| Cc1ccc(-n2c(SCCN)nnc2-c2cccc(C)c2)cc1 | inactive | 66.9 | 66.8 | 76.2 | 67 |
| O=C(Nc1ccc(Oc2ccccc2)cc1)c1csc([C@@H]2O[C@H](CO)[C@H](O)[C@H](O)[C@H]2O)n1 | inactive | 40.1 | 40.1 | 57.4 | > 79 |
| Cc1cccc(Cc2cnc(N3C(=N)SC(C)C3=O)s2)c1 (stereo not given) | active | 7.79 | 7.79 | 41.4 | > 79 |
| CC(=O)N1N=C(c2cccs2)CC1c1cccc([N+](=O)[O-])c1 (stereo not given) | inactive | 23.2 | 20.8 | 73.7 | 25.5 |
| CCOC(=O)CS(=O)(=O)c1nc(-c2ccccc2)cc(C(F)(F)F)n1 | inactive | 18.9 | 17.7 | 108 | 20.2 |
| CCC(C)c1ccc(O)c(NC(=S)NC(=O)c2cccs2)c1 (stereo not given) | inactive | 11.8 | 15.4 | 82.8 | 8.27 |
| O=C(N/N=C/c1ccc([N+](=O)[O-])o1)c1sc2ccccc2c1Cl | inactive | 19.5 | 19.2 | 97 | 19.9 |
| CC(Oc1cccc(Br)c1)C(=O)NNC(=O)c1ccccn1 (stereo not given) | inactive | 14.4 | 12 | 105 | 16.9 |
| O=C(NCc1cccnc1)/C(=C\c1ccc(-c2cccc(Cl)c2)o1)S(=O)(=O)c1ccccc1 | inactive | 13.8 | 11.9 | 88.9 | 15.7 |
| COc1ccc(-c2c(C(=O)c3ccccc3)[nH]c(N)c2C(=O)c2ccccc2)cc1OC | inactive | 28.4 | 33.1 | 71.1 | 23.8 |
| CCOc1cc(/C=C2\N=C(SCC)SC2=O)cc([N+](=O)[O-])c1OC(C)=O | inactive | 39.3 | 23.8 | 95.5 | 54.8 |
| Cc1ccc(OCC(=O)NNC(=S)NC(=O)C2CC2)c(C)c1 | inactive | 14.2 | 10.3 | 72.3 | 18.1 |
| O=C(Nc1ccccc1)c1ccc(Nc2c([N+](=O)[O-])cc([N+](=O)[O-])c3ccccc23)cc1 | inactive | 44.4 | 65.1 | 98.6 | 23.6 |
| Cc1ccc(NCC(=O)c2ccc(C)cc2)cc1 | active | 5.44 | 5.44 | 58.5 | > 79 |
| Cc1ccccc1NC(=S)NNc1ncc(C(F)(F)F)cc1Cl | inactive | 15 | 16.4 | 83.5 | 13.7 |

| Compound | outcome | IC50 [1] [µM] | IC50 (CXCR6, run 1, dose range 2) [µM] | inhibition [%] | IC50 (CXCR6, run 2, dose range 2) [µM] |
| --- | --- | --- | --- | --- | --- |
| Cc1ccc(P(=O)(c2ccc(C)cc2)[C@@H](NC(c2ccccc2)c2ccccc2)c2ccccc2)cc1 | inactive | 19.6 | 17 | 82.4 | 22.1 |
| CC(=NO)C1CCC2C3CCC4=CC(=NO)CCC4(C)C3C(O)CC12C (stereo not given) | inactive | 28.9 | 12.5 | 75.2 | 45.4 |
| Cn1c(=O)[nH]c(=O)c2c1nc(Sc1nc3ccccc3s1)n2Cc1ccccc1 | inactive | 21.9 | 18.3 | 77.5 | 25.6 |
| CCCC/C=C1/CCC(CN(C)C)C1=O (stereo not given) | inactive | 22.6 | 22.3 | 110 | 22.8 |
| FC(F)(F)c1cnc(NNC(=S)Nc2ccccc2)c(Cl)c1 | inactive | 14.9 | 12 | 112 | 17.8 |
| Fc1ccc(NC(=S)NNc2ncc(C(F)(F)F)cc2Cl)c(F)c1 | inactive | 11.6 | 11.2 | 109 | 12 |
| Cc1ccc(NC(=S)NNc2ccc(C(=O)O)cc2[N+](=O)[O-])cc1C | inactive | 48.9 | 48.9 | 62 | > 79 |
| CCOc1ccc(/C=C/[N+](=O)[O-])c2ccccc12 | inactive | 17.2 | 17.3 | 109 | 17.1 |
| CS(=O)(=O)c1ccc(C(=O)OCC(=O)N2CCN(CCC3CCCCC3)CC2)cc1[N+](=O)[O-] | inactive | 11.2 | 10.6 | 111 | 11.8 |
| CC(O)CN(CC(C)O)c1ccc2c(c1)Cc1cc([N+](=O)[O-])ccc1-2 (stereo not given) | inactive | 21.4 | 20.1 | 76 | 22.7 |
| COc1ccc(NC(=S)NNc2ccc([N+](=O)[O-])cc2S(=O)(=O)Nc2ccc(C)cc2C)cc1 | inactive | 35.1 | > 79 | 106 | 35.1 |
| N#C/C(=C/c1ccc(-c2ccc([N+](=O)[O-])cc2)o1)C(=O)Nc1nc(-c2cccs2)cs1 | inactive | 38.1 | 44.7 | 90.2 | 31.5 |
| O=C(C#Cc1cccc([N+](=O)[O-])c1)c1ccccc1 | inactive | 13.5 | 12.6 | 108 | 14.4 |
| Oc1ccc(Cl)c2cccnc12 | active | 4.82 | 4.82 | 17.7 | > 79 |
| CCc1nnc(NS(=O)(=O)c2ccc(Nc3ccc([N+](=O)[O-])c4nonc34)cc2)s1 | inactive | 34.1 | 29.8 | 92.2 | 38.4 |
| Cn1cnc([N+](=O)[O-])c1S(=O)(=O)Oc1ccccc1 | inactive | 19.4 | 16.5 | 111 | 22.3 |
| O=[N+]([O-])c1ccc(N/N=C/c2sc(N3CCOCC3)nc2-c2ccccc2)c(S(=O)(=O)Nc2ccc(Cl)cc2)c1 | inactive | 55.1 | 72.8 | 99.6 | 37.3 |
| Nc1nc(N)c2c(ccc3c2ccn3Cc2cccc([N+](=O)[O-])c2)n1 | inactive | 16.9 | 15.8 | 110 | 18 |
| C=CCOc1ccc(C=NNc2ccc(S(=O)(=O)Nc3ccccc3C(=O)O)cc2[N+](=O)[O-])cc1OC | inactive | 28.8 | 29.4 | 98.5 | 28.2 |
| CN(c1ccccc1)c1ccc(/C=C/[N+](=O)[O-])cc1 | inactive | 11.4 | 10.3 | 114 | 12.5 |
| Cc1cc(C)nc(S/C=C/C(=O)c2ccccc2)n1 | inactive | 25.1 | 22.6 | 107 | 27.5 |
| NC(=S)NN=C1c2cc(Cl)ccc2-c2c1cc(Cl)cc2[N+](=O)[O-] | inactive | 14.1 | 11.7 | 93.3 | 16.4 |
| CS(=O)(=O)c1ncc(Cl)c(C(=O)Nc2ccc(OC(F)F)cc2)n1 | inactive | 13.3 | 12.4 | 113 | 14.2 |
| CC1(C)Cc2ccccc2C(NNC(=O)c2ccccn2)=N1 | inactive | 19.1 | 18 | 108 | 20.2 |
